Consider nine compounds from patent US9000185B2, “Cycloalkyl ether compounds and their use as BACE inhibitors” (AstraZeneca AB, priority 2012, dated 2015).

What is called IC50 is the concentration needed to halve the response being measured.

Experiment [1] has as its target T1, human β-Secretase (sBACE-Fc) (Homo sapiens (Human), UniProt P56817). Kind of experiment: Diluted TR-FRET assay. As to conditions: diluted TR-FRET assay: 50 times less enzyme, 6.5 h reaction time at r.t.; read-out: IC50 in TR-FRET assay (IC50 from the diluted FRET assay). It counts as biochemical. On the procedure:
(§1) The cDNA for the soluble part of the human β-Secretase (AA 1-AA 460) was cloned using the ASP2-Fc10-1-IRES-GFP-neoK mammalian expression vector. The gene was fused to the Fc domain of IgG1 (affinity tag) and stably cloned into HEK 293 cells.
(§2) The enzyme (truncated form) was diluted to 6 μg/mL (stock 1.3 mg/mL) and the TruPoint BACE1 Substrate to 200 nM (stock 120 μM) in reaction buffer (NaAcetate, chaps, triton x-100, EDTA pH4.5). Enzyme and compound in dimethylsulphoxide (final DMSO concentration 5%) was mixed and pre-incubated for 10 minutes at RT. Substrate was then added and the reaction was incubated for 15 minutes at RT. The reaction was stopped with the addition of 0.35 vol Stop solution (NaAcetate, pH 9). The fluorescence of the product was measured on a Victor II plate reader with excitation wavelengths of 340-485 nm and emission wavelengths of 590-615 nm. The final concentration of the enzyme was 2.7 μg/ml; the final concentration of substrate was 100 nM (Km of ˜250 nM). The dimethylsulphoxide control, instead of test compound, defined the 100% activity level and 0% activity was defined by wells lacking enzyme (replaced with reaction buffer) or by a saturating dose of a known inhibitor, 2-amino-6-[3-β-methoxyphenyl)phenyl]-3,6-dimethyl-5H-pyrimidin-4-one.
Compounds with a high affinity were further tested in a diluted TR-FRET assay, conditions as described above for the TR-FRET assay, but with 50 times less enzyme and a 6.5 h long reaction time at r.t. in the dark.
In general terms: In TR-FRET formats the signal depends on donor and acceptor labels being close together.

Experiment [2] has as its system sAPPβ release in SH-SY5Y cells. Kind of experiment: sAPPβ release assay. In kind it is cell-based. Conditions: 17 h incubation. The method, then:
SH-SY5Y cells were cultured in DMEM/F-12 with Glutamax, 10% FCS and 1% non-essential amino acids and cryopreserved and stored at −140° C. at a concentration of 7.5−9.5×10^6 cells per vial. […] The cell plates were then incubated for 7-24 h at 37° C., 5% CO2. The cell medium was removed, followed by addition of 30 μL compound diluted in DMEM/F-12 with Glutamax, 10% FCS, 1% non-essential amino acids and 1% PeSt to a final conc. of 1% DMSO. The compounds were incubated with the cells for 17 h (overnight) at 37° C., 5% CO2. Meso Scale Discovery (MSD) plates were used for the detection of sAPPβ release. MSD sAPPβ plates were blocked in 1% BSA in Tris wash buffer (40 μL/well) for 1 h on shake at r.t. and washed 1 time in Tris wash buffer (40 μL/well). 20 μL of medium was transferred to the pre-blocked and washed MSD sAPPβ microplates, and the cell plates were further used in an ATP assay to measure cytotoxicity. The MSD plates were incubated with shaking at r.t. for 2 h and the media discarded. 10 μL detection antibody was added (1 nM) per well followed by incubation with shaking at r.t. for 2 h and then discarded. 40 μL Read Buffer was added per well and the plates were read in a SECTOR Imager.

The target in experiment [3] is T1, human β-Secretase (sBACE-Fc). In words: TR-FRET assay. It counts as biochemical. As to conditions: standard TR-FRET assay, 15 minutes reaction at RT. On the procedure: The β-secretase enzyme used in the TR-FRET is prepared as follows:
as §1, §2

T1 sequence (P56817 22-460): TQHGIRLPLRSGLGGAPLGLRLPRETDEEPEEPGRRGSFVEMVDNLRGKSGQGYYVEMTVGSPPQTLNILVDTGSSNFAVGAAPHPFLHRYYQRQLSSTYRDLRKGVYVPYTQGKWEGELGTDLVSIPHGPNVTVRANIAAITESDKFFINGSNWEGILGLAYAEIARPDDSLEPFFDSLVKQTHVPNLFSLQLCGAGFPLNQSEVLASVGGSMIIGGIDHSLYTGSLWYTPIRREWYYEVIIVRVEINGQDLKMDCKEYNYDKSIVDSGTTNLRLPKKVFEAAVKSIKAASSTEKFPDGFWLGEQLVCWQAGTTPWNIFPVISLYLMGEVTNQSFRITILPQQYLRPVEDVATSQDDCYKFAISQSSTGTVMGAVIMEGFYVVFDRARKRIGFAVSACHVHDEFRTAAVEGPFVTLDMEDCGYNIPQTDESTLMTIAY

As for `CO[C@H]1CC[C@]2(CC1)Cc1ccc(OCC3CC3)cc1[C@@]21N=C(C)C(N)=N1` (single isomer, unassigned; isomer 1) [4, isomer 1], the IC50 in experiment [1] was found to be 3.7 nM; in experiment [2], 0.9 nM.

With `CO[C@H]1CC[C@]2(CC1)Cc1ccc(OCC3CCC3)cc1[C@@]21N=C(C)C(N)=N1` (single isomer, unassigned; isomer 1) [7, isomer 1], in experiment [2], the IC50 worked out at 1.3 nM.

`CO[C@H]1CC[C@]2(CC1)Cc1ccc(OCC3CC3)cc1[C@]21N=C(C)C(N)=N1` (single isomer, unassigned; isomer 2) [4, isomer 2] gave an IC50 in experiment [3] of over 5000 nM.

With `CO[C@H]1CC[C@]2(CC1)Cc1ccc(OCC3(C)CC3)cc1C21N=C(C)C(N)=N1` (stereo partly drawn) [Example 1, (1r,4r)-4-Methoxy-5″-methyl-6′-[(1-methylcyclopropyl)methoxy]-3′H-dispiro[cyclohexane-1,2′-indene-1′,2″-imidazol]-4″-amine], the IC50 came out at 18 nM in experiment [1] and 2.8 nM in experiment [2] (Homo sapiens).

With `CO[C@H]1CC[C@]2(CC1)Cc1ccc(OCC3CC(F)(F)C3)cc1C21N=C(C)C(N)=N1` (stereo partly drawn) [Example 2, (1r,4r)-6′-[(3,3-Difluorocyclobutyl)methoxy]-4-methoxy-5″-methyl-3′H-dispiro[cyclohexane-1,2′-indene-1′,2″-imidazol]-4″-amine], the values for the 50% inhibitory concentration (IC50) in experiment [3] and in experiment [2] (Homo sapiens) were 50 nM and 8.4 nM, respectively.

With `CO[C@H]1CC[C@]2(CC1)Cc1ccc(OCC3CC3)cc1C21N=C(C)C(N)=N1` (stereo partly drawn) [Example 3, (1r,4r)-6′-(Cyclopropylmethoxy)-4-methoxy-5″-methyl-3′H-dispiro[cyclohexane-1,2′-indene-1′,2″-imidazol]-4″-amine], the IC50 in experiment [1] was found to be 7.4 nM; in experiment [2] (Homo sapiens), 1.6 nM.

`CO[C@H]1CC[C@]2(CC1)Cc1ccc(OCC3CC3(F)F)cc1C21N=C(C)C(N)=N1` (stereo partly drawn) [Example 5, (1r,4r)-6′-[(2,2-Difluorocyclopropyl)methoxy]-4-methoxy-5″-methyl-3′H-dispiro[cyclohexane-1,2′-indene-1′,2″-imidazol]-4″-amine]: the IC50 came out at 13 nM in experiment [1] and 2.3 nM in experiment [2] (Homo sapiens).

Consider `CO[C@H]1CC[C@]2(CC1)Cc1ccc(OCC3CCC3)cc1C21N=C(C)C(N)=N1` (stereo partly drawn) [Example 6, (1r,4r)-6′-(Cyclobutylmethoxy)-4-methoxy-5″-methyl-3′H-dispiro[cyclohexane-1,2′-indene-1′,2″-imidazol]-4″-amine], for which the IC50 in experiment [2] (Homo sapiens) is 1.5 nM.

Take `CO[C@H]1CC[C@]2(CC1)Cc1ccc(OCCC3CC3)cc1C21N=C(C)C(N)=N1` (stereo partly drawn) [Example 8, (1r,4r)-6′-(2-Cyclopropylethoxy)-4-methoxy-5″-methyl-3′H-dispiro[cyclohexane-1,2′-indene-1′,2″-imidazol]-4″-amine]: the IC50 worked out at 3.7 nM in experiment [1] and 0.8 nM in experiment [2] (Homo sapiens).
